Experiment [1] concerns T. gondii ME49. The experiment can be described thus: Length of treatment needed to kill intracellular T. gondii (compound wash-off, luciferase 72 hours later). The experiment is classed as cell-based, Toxoplasma gondii. Particulars: 30 nM trtE, ME49 in HFF, treated 0.5 to 4 hours, washed off, growth 72 hours after treatment. The procedure: To test this hypothesis, we infected HFF cells with luciferase-expressing T. gondii ME49 for 24 hours, then treated infected cells with trtE for 30 minutes to 4 hours. The compound was then washed off the infected cells, and parasite growth was quantified 3 days after the removal of the compound. Parasites treated for at least 2 hours were killed by trtE (Fig 2E).
T. gondii parasite lines were maintained by passage in HFFs as previously described. To determine the effect of trtE on intracellular parasites, 96 well plates containing confluent HFFs were infected with T. gondii strain ME49 modified to express green fluorescent protein (GFP) and luciferase (Luc), generated as described or T. gondii RH strain GFP/Luc (a kind gift from Dr. Jeroen Saeij, UC Davis). […] Growth was monitored by luciferase expression using Bright-glo Luciferase assay system (Promega Corp., Madison, WI). To determine the length of treatment needed to kill intracellular parasites, trtE was added to infected cells and then the compound removed 0.5, 1, 2 and 4 hours later by washing the monolayer three times with complete media. Infected cells were then incubated for 72 hours before growth was quantified by luciferase expression. For time-lapse images, HFFs were seeded into 35 mm glass bottom microwell dishes (MatTek Corporation, Ashland, MA). […]

The subject of experiment [2] is C. parvum. The experiment can be described thus: Immunofluorescence assay (anti-gp15) of C. parvum-infected HCT8 cells. The experiment is classed as cell-based, Cryptosporidium parvum. To be noted: 60 nM trtE, 12 hours, HCT8 cells infected 8 hours. The procedure: We had postulated that secondary metabolites generated by symbiotic bacteria of invertebrates might include compounds that target gregarines, an ancient group of apicomplexans found in most, and perhaps all, invertebrates. The only gregarines known to infect mammals are Cryptosporidium species, gastrointestinal parasites that cause diarrheal disease in humans and other mammals. HCT8 cells were infected with luciferase-expressing Cryptosporidium parvum parasites for 24 hours, then two-fold dilutions of trtE added to the infected cells. 48 hours after the addition of trtE, parasite growth was quantified by luciferase expression. […]
For all IFAs, the investigator reading the slides and collecting images was blind to the sample treatment. […] 24 hours post treatment, infected cells were fixed with methanol, and parasites detected with rabbit anti-SAG1 antibody for T. gondii or rabbit anti-gp15 for C. parvum as we have described previously. […] This CE11 line is transiently transfected with a plasmid that expresses nanoluciferase from a B. divergens promoter and green fluorescence protein-blasticidin (gfp-bsd) from the selection cassette. […] Mean background levels were determined for individual images by assaying areas lacking cells, and the values were subtracted, whereas maximum fluorescent values were individually set as the upper limit. […]

From PMC7274485, “A symbiotic bacterium of shipworms produces a compound with broad spectrum anti-apicomplexan activity” (PLoS Pathogens, 2020) come the findings set out here.

Entries after “also recorded” stand apart in the source; their conditions may differ.

Consider `CC1CCC=CC=CCCC(O)CC(=O)CC2CCC(C)C3(O2)O[B-]24OC(C(=O)O1)C1(OC(CCC1C)CC(=O)CC(O)CCC=CC=CCCC(C)OC(=O)C3O2)O4` (centres unmarked) [trtE, tartrolon E], for which, in experiment [1], the “Length of trtE treatment after which parasites were killed” value is “kills the parasites after two hours of treatment”. In addition, the “Morphology of trtE treated C. parvum (IFA)” value in experiment [2] is given as “no visible intact merozoites; also recorded: few discernable parasites”.
